US11396518B2, “Solid forms of thiophene derivatives” (TIANJIN HEMAY PHARMACEUTICAL CO., LTD., priority 2018, dated 2022)

Legend:
Format in all cases: physicochemical
[1] = Hygroscopicity (XRPD after moisture absorption at RH=80%)
Method: Hygroscopicity of an amorphous solid form of (S)—N-[5-[1-(3-ethoxy-4-methoxyphenyl)-2-(methylsulfonyl)ethyl]-4,6-dioxo-5,6-dihydro-4H-thieno[3,4-c]pyrrole-1-yl]acetamide was studied. The amorphous solid form of (S)—N-[5-[1-(3-ethoxy-4-methoxyphenyl)-2-(methylsulfonyl)ethyl]-4,6-dioxo-5,6-dihydro-4H-thieno[3,4-c]pyrrole-1-yl]acetamide was placed in a drier containing saturated ammonium chloride solution (RH=80%) until weight was balanced. The crystal form was tested with XRPD.
An amorphous solid form of (S)—N-[5-[1-(3-ethoxy-4-methoxyphenyl)-2-(methylsulfonyl)ethyl]-4,6-dioxo-5,6-dihydro-4H-thieno[3,4-c]pyrrole-1-yl]acetamide prepared according to the process of Example 1 was tested.

[2] = Pressure stability (DSC after tablet pressing); details: tablet press machine with single punch, tablet diameter 6 mm, hardness 25-30 N
Method: An amorphous solid form of (S)—N-[5-[1-(3-ethoxy-4-methoxyphenyl)-2-(methylsulfonyl)ethyl]-4,6-dioxo-5,6-dihydro-4H-thieno[3,4-c]pyrrole-1-yl]acetamide was pressed by tablet press machine with single punch. The diameter of the tablet was 6 mm and the hardness was 25-30 N. DSC test was carried out on pressed powder.

[3] = Grinding stability (XRPD after grinding)
Method: An amorphous solid form of (S)—N-[5-[1-(3-ethoxy-4-methoxyphenyl)-2-(methylsulfonyl)ethyl]-4,6-dioxo-5,6-dihydro-4H-thieno[3,4-c]pyrrole-1-yl]acetamide prepared according to the process of Example 1 was ground in a glass mortar for 5 minutes. The ground samples were tested with XRPD.

[4] = Dissolution rate in water; details: about 25 mg in 900 mL of water, 37° C., rotating speed 100/minute
Method: An amorphous solid form of (S)—N-[5-[1-(3-ethoxy-4-methoxyphenyl)-2-(methylsulfonyl)ethyl]-4,6-dioxo-5,6-dihydro-4H-thieno[3,4-c]pyrrole-1-yl]acetamide prepared according to the process in Example 1 was tested.
About 25 mg of the amorphous solid form of (S)—N-[5-[1-(3-ethoxy-4-methoxyphenyl)-2-(methylsulfonyl)ethyl]-4,6-dioxo-5,6-dihydro-4H-thieno[3,4-c]pyrrole-1-yl]acetamide was added to 900 mL of water. The mixture was stirred at a rotating speed of 100/minute at 37° C. for 90 minutes. The supernatant was filtered and diluted. The concentration of the diluted solution (a mg/mL) was determined by ultraviolet spectrophotometer. The dissolution rate was calculated according to the formula 900a/25×100%.

CCOc1cc([C@@H](CS(C)(=O)=O)N2C(=O)c3csc(NC(C)=O)c3C2=O)ccc1OC [amorphous solid form, (S)—N-[5-[1-(3-ethoxy-4-methoxyphenyl)-2-(methylsulfonyl)ethyl]-4,6-dioxo-5,6-dihydro-4H-thieno[3,4-c]pyrrole-1-yl]acetamide]
Moisture absorption stability (conclusion in words) ([1]; RH=80% until weight was balanced): good moisture absorption stability | Crystal Form after Absorbing Moisture ([1]; drier with saturated ammonium chloride solution (RH=80%) until weight was balanced): Amorphous | DSC curve of pressed powder compared with FIG. 2 [2]: substantially identical | Pressure stability (conclusion in words) [2]: good stability | Crystal Form after Grinding ([3]; Grinding in a glass mortar for 5 minutes): Amorphous | Grinding stability (conclusion in words) ([3]; ground in a glass mortar for 5 minutes): good grinding stability | Dissolution Rate (%) ([4]; Time 0 min): 0% | Dissolution Rate (%) ([4]; Time 15 min): 38.3% | Dissolution Rate (%) ([4]; Time 30 min): 54.9% | Dissolution Rate (%) ([4]; Time 45 min): 72.8% | Dissolution Rate (%) ([4]; Time 60 min): 63.7%
